# According to publication PMC10590756, “Glutarate regulates T cell metabolism and anti-tumour immunity” (Nature Metabolism, 2023):
# Assays:
# [1] = test system: murine OT1 T cells; experiment: Growth of murine OT1 T cells; assay type: cell-based, mouse; conditions: 500 µM, 7 days
# Description: B16F10 cells were originally purchased from ATCC (catalogue no. CRL-6475) and genetically modified to express OVA, enhanced green fluorescent protein (GFP) and neomycin phosphotransferase. The resulting OVA expression B16F10-OVA cells were cultured in DMEM (catalogue no. 11995065, Thermo Fisher Scientific) containing 0.75 mg ml^−1 G418 sulphate (catalogue no. 10131027, Thermo Fisher Scientific). HEK 293T cells were purchased from Takara Bio (catalogue no. 632180) and cultured in DMEM. SKOV3 was purchased from ATCC (catalogue no. HTB-77) and cultured in McCoy’s 5A (Modified) Medium (catalogue no. 16600082, Thermo Fisher Scientific). Raji-GFP-Luc cells were purchased from Biocytogen (catalogue no. B-HCL-010) and cultured in Roswell Park Memorial Institute (RPMI) 1640 (catalogue no. 21875, Thermo Fisher Scientific). Jurkat cells were purchased from ATCC (catalogue no. TIB-152) and cultured in RPMI 1640. RAW 264.7 cells were purchased from ATCC (catalogue no. TIB-71) and cultured in RPMI 1640. HeLa cells were a gift from P. Lehner (University of Cambridge) and were authenticated using short tandem repeat profiling (Eurofins Genomics). HeLa cells were cultured in DMEM. […] Cell number and viability was determined using the ADAM-MC Automated Cell Counter (NanoEntek), CellDrop Automated Cell Counter (DeNovix) or TC20 Automated Cell Counter (Bio-Rad Laboratories).
# [2] = test system: human CD8^+ T cells; experiment: qPCR gene expression in CD8^+ T cells; assay type: cell-based; conditions: 500 µM DEG, 7 days
# Description: Total RNA was extracted from isolated CD8^+ T cells (RNeasy Kit, QIAGEN); 300 ng of RNA were used for complementary DNA synthesis (First-Strand cDNA Synthesis Kit, Invitrogen). Quantitative PCR with reverse transcription (RT–qPCR) was performed with SYBR green (Roche) in a StepOnePlus system (Applied Biosystems). All kits were used according to the manufacturer’s instructions. Samples were run in technical duplicates. Primers were designed with NCBI primer blast and are listed in Supplementary Table 5.
# [3] = target: T1, human full-length KDM6A (Homo sapiens, UniProt O15550); experiment: Cell-free KDM6A activity assay (^14CO2 release); assay type: biochemical
# T1 construct: The human full-length HIF-P4H-1 and KDM6A enzymes were recombinantly produced using Sf21 insect cells; made in house; host or cells: Sf21 insect cells (baculovirus, pVL1393)
# T1 sequence (O15550 whole entry): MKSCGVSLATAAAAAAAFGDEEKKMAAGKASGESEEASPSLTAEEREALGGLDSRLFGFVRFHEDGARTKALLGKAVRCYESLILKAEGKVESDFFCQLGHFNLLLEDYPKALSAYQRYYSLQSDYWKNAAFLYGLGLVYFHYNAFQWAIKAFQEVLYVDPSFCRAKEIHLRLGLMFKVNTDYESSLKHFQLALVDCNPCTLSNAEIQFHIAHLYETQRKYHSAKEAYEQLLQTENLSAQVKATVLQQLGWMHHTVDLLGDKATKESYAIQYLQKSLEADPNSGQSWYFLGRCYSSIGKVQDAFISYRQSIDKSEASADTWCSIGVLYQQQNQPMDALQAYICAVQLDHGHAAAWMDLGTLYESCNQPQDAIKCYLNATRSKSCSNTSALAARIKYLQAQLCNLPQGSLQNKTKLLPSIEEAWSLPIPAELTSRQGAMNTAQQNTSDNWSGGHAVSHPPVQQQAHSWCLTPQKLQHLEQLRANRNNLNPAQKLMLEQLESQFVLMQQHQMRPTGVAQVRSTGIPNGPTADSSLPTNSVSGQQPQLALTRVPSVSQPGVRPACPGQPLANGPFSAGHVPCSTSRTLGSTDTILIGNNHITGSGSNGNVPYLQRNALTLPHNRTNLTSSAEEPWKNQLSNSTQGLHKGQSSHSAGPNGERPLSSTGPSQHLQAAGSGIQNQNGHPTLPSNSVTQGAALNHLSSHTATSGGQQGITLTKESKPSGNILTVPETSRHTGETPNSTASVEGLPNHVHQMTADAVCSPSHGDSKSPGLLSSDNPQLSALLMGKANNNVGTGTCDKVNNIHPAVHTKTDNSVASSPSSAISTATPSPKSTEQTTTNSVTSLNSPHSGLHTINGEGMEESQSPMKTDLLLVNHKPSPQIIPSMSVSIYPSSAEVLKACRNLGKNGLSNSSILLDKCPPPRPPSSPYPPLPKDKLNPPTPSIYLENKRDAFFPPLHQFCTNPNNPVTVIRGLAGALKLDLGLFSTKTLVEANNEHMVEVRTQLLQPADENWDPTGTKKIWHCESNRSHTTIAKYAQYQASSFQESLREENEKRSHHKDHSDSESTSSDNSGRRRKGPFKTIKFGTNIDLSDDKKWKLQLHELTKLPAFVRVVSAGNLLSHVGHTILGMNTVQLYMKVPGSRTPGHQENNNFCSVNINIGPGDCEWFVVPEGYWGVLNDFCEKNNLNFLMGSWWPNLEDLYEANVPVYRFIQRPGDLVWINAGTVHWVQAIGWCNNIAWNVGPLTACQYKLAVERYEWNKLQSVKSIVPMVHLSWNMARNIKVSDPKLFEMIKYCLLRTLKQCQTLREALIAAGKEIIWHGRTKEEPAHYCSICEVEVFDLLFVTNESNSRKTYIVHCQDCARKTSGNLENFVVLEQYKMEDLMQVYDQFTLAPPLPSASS
# Excerpt: The human full-length HIF-P4H-1 and KDM6A enzymes were recombinantly produced using Sf21 insect cells and the enzymes were purified with anti-FLAG M2 affinity gel as described previously[68],[69]. Briefly, the C terminus FLAG-tagged human HIF-P4H1-2 and KDM6A were generated using PCR and subcloned into pAcG3X and pVL1393 baculovirus expression vectors, respectively. The recombinant baculoviruses were generated by transducing the bacmid DNA into Spodoptera frugiperda Sf9 cells using BaculoGold DNA (HIF-P4H1-2, BD Biosciences) and BacMagic-3 DNA kit (for KDM6A, Novagen). Recombinant proteins were produced by infecting Sf21 insect cells with the corresponding amplified baculoviruses for 72 h at 27 °C. Cells were homogenized in a buffer containing 10 mM Tris, 150 mM NaCl, 100 mM glycine, 0.1% (v/v) Triton X-100, pH 7.8, and a protease inhibitor cocktail tablet without EDTA. The cell lysates were centrifuged at 21,000g for 30 min; the soluble fractions containing the FLAG-tagged proteins were affinity-purified using the anti-FLAG M2 affinity gel (Sigma-Aldrich). […] Protein concentration was measured with NanoDrop and proteins were analysed by SDS–PAGE followed by Coomassie brilliant blue staining. […] The IC50 value of the glutarate analogue was calculated from the inhibition saturation curves.
SMILES,growth of murine OT1 T cells [1],carnitine palmitoyltransferase 1A (CPT1A) gene expression [2],expression of HIF target genes [2],fatty acid binding protein (FABP) gene expression [2],fatty acid synthase (FASN) gene expression [2],mRNA levels of PDHK1 [2],IC50 [3] [µM]
"CCOC(=O)CCCC(=O)OCC [DEG, Diethyl glutarate]",did not affect the growth,increased levels,increased expression,increased levels,increased levels,increased,
"O=C(O)CCCC(=O)O [glutarate, glutaric acid]",,,,,,,600
